{"source": "patent US20260191924A1", "about": "“METHODS AND COMPOSITIONS FOR TREATING VIRAL INFECTIONS” (DST Pharma, Inc., priority 2020, published 2026)", "key": {"[1]": {"system": "FCV F9", "experiment": "Effect of 5,7,3′,4′-tetrarydroxyflavon-3-ol C4-C8 dimers on FCV F9 infection of CRFK cells", "format": "cell-based, feline calicivirus (cat kidney CRFK cells)", "settings": "0.1% dimers, added before, with or after virus (FIG. 6)", "procedure": "50 μl of virus was added to 450 μl complete EMEM to create a 10^−1 viral mix. A series of dilutions made from this mix up to 10^−8. Virus was added to all wells by loading 250 μl from each dilution to the designated wells. 3 well repeats were prepared. Purified 5, 7, 3′, 4′-tetrarydroxyflavon-3-ol C4-C8 dimers was diluted to 0.1% in complete EMEM.\nFor experiments in which 5, 7, 3′, 4′-tetrarydroxyflavon-3-ol C4-C8 dimers was added before the virus, 5, 7, 3′, 4′-tetrarydroxyflavon-3-ol C4-C8 dimers was diluted to 0.1% using MM (1:100), added to cells and incubated for 1 hour before the virus was added to the cells.\nFor experiments in which 5, 7, 3′, 4′-tetrarydroxyflavon-3-ol C4-C8 dimers was added simultaneously with the virus, the virus was diluted in 0.1% purified complete EMEM, added to wells, incubated for 1 hour, then complete EMEM was added to the wells.\nFor experiments in which 5, 7, 3′, 4′-tetrarydroxyflavon-3-ol C4-C8 dimers was added after viral infection, viral dilutions were added to wells, incubated for 1 hour, 0.1% complete EMEM was added to the wells. The medium was changed to complete EMEM after 60 minutes."}, "[2]": {"system": "FCV F9", "experiment": "Effect of quercetin on FCV F9 infection of CRFK cells", "format": "cell-based, feline calicivirus (cat kidney CRFK cells)", "settings": "0.1% quercetin, added 1 hour before, with, or 1 hour after virus (FIG. 4)", "procedure": "50 μl of the virus was added to 450 μl HBSS making a 10^−1 viral titer mix. A series of dilutions made from this mix up to 10^−8. Virus was added to all wells by loading 250 μl from each dilution to the designated wells, same as for viral titer. 3 well repeats were prepared. Quercetin was prepared at 10% quercetin in DMSO.\nFor experiments in which quercetin was added before viral infection, the quercetin was diluted to 0.1% using MM (1:100), added to cells, and incubated for 1 hour.\nFor experiments in which quercetin was added at the same time as viral infection, the virus was diluted in 0.1% quercetin MM/DMSO, added to wells, incubated for 1 hour, and then MM was added.\nFor experiments in which quercetin was added after viral infection, viral dilutions were added to the cells, incubated for 1 hour, then 0.1% quercetin in MM/DMSO was added. The medium was changed to MM after 60 minutes."}}, "data": [{"smiles": "Oc1cc(O)c2c(c1)OC(c1ccc(O)c(O)c1)C(O)C2c1c(O)cc(O)c2c1OC(c1ccc(O)c(O)c1)C(O)C2", "note": "(centres unmarked) [5,7, 3′, 4′-tetrahydroxyflavan-3-ol C4-C8 dimers]", "values": [{"measurement": "effect against FCV infection", "setting": "[1]", "result": "effective against FCV infection comparable to quercetin and better than rutin"}]}, {"smiles": "O=c1c(O)c(-c2ccc(O)c(O)c2)oc2cc(O)cc(O)c12", "note": "[quercetin, 3, 3′, 4′, 5,7-pentahydroxyfivanone]", "values": [{"measurement": "inhibition of FCV F9 infection of CRFK cells", "setting": "[2]", "result": "significantly inhibited"}]}]}
